Laboratory results from PMC7799360, “Reprogramming immunosuppressive myeloid cells facilitates immunotherapy for colorectal cancer” (EMBO Molecular Medicine, 2020).
Where two headings read alike, the source gives them in different places.

Key:
CT26 tumors = test: CT26 subcutaneous syngeneic tumor model in BALB/c mice; format: in vivo, mouse
Description: (§1) Syngeneic mouse tumor‐bearing models were established as described previously (Tan et al., 2018). Tumor cells (5 × 10^5 ‐ 2 × 10^6) were suspended in 100 μl PBS and implanted subcutaneously into the flank of mice. Mice were randomized into different treatment groups when tumor volumes reached 100‐200 mm^3. V = L×W^2 × 0.52, where L is the longest diameter, and W is the shortest diameter. Tumor size and body weight were recorded every second or third day. Mouse survival was analyzed using the Kaplan–Meier method.
(§2) Single agent or combination treatment was designed as follows: TP‐16 (37.5, 75, 150 mg/kg) or celecoxib (100 mg/kg) was formulated in 0.5% carboxymethylcellulose sodium (CMC‐Na, Sangon Biotech, Shanghai, China) and administered via oral gavage daily. In vivo anti‐PD1 antibody (clone RMP1‐14, BioXCell, West Lebanon, NH, USA) and rat IgG2a isotype control (clone 2A3, BioXCell) were diluted in sterile PBS and administered intraperitoneally at a dose of 50 μg twice weekly.

HCT8 = test: Cell viability (MTS); format: cell-based, human; conditions: HCT8, 100 µM
Source text: (§3) The murine colon cancer (CT26), murine breast cancer (4T1), and human colon cancer (HCT116, HCT8, HT29, and DLD1) cell lines were obtained from American Type Culture Collection (ATCC). The murine cell lines of melanoma (B16F10), pancreatic cancer (Pan02), and colon cancer (MC38), Chinese hamster ovary (CHO) cell line, and human embryonic kidney cell lines (HEK293 and HEK293T) were purchased from the National Infrastructure of Cell Line Resource (Shanghai, China). Primary human endothelial cells (HUVECs) were kindly provided by Dr. Xinli Wang (Baylor College of Medicine, Houston, TX, USA) and cultured in endothelial cell medium (ScienCell, San Diego, CA, USA) according to the manufacturer’s instructions. The CHO‐Gα16 cell line was established in our previous study and maintained in DMEM/F12 medium containing puromycin (4 μg/ml) (Wu et al., 2018). Cell lines were maintained in vendor recommended growth medium supplemented with 10% FBS (Gibco, Waltham, MA, USA) and 1% penicillin/streptomycin solution (Gibco) at 37°C ins a humidified atmosphere (5% CO2). All cell lines were authenticated using short tandem repeat analysis. All cell lines were confirmed to be mycoplasma‐free by polymerase chain reaction (PCR) analysis. Cell viability was determined using CellTiter 96 ® Aqueous One Solution (Promega, Madison, WI).
(§4) Appendix Figure S1. […]. The cytotoxicity curves
(§5) . Mouse cancer cells: CT26
(§6) . Human colon cancer cells: HCT116 (E),
(§7) HCT8 (F), HT29 (G) and DLD1 (H). Human normal cell line: HUVECs (I). Cell
(§8) viability was measured by MTS. Data are presented as mean ± SEM derived
(§9) from three independent experiments (n=3).
(§10) (1 picture or pasted object on this page, not shown here)

DLD1 = test: Cell viability (MTS); format: cell-based, human; conditions: DLD1, 100 µM
Source text: as §3, §4, §5, §6, §7, §8, §9, §10

HCT116 = test: Cell viability (MTS); format: cell-based, human; conditions: HCT116, 100 µM
Source text: as §3, §4, §5, §6, §7, §8, §9, §10

HUVEC = test: Cell viability (MTS); format: cell-based, human; conditions: 100 µM
Source text: as §3, §4, §5, §6, §7, §8, §9, §10

HT29 = test: Cell viability (MTS); format: cell-based, human; conditions: HT29, 100 µM
Source text: as §3, §4, §5, §6, §7, §8, §9, §10

[1] = Pharmacokinetics in CD1 mice; format: in vivo, mouse; conditions: for AUC(0-t): read-out: AUC0-24
Source text: 5% (v/v) dimethyl sulfoxide ( DMSO), 10% solutol, and 85% β -cyclodextrin) to male CD1 mice (n = 3). Blood samples were collected at 0.08, 0.25, 0.5, 1, 2, 4, 8, and 24 hr after administration. After suitable sample preparation, the concentration of TP -16 in plasma samples was determine d by the Agilent 1290 HPLC system, coupled with a 6460 triple -quadrupole mass spectrometer and an Agilent Jet Stream electrospray ionization (ESI) source (Agilent
Technologies, USA). Pharmacokinetic parameters were calculated by WinNonlin software version 7.0 based on non -compartmental analysis
(Pharsight Corporation, Mountain View, USA). […]

mouse bone marrow cells = test: Macrophage polarization assay (M-CSF/IL-4/PGE2, M2 macrophages); format: cell-based; conditions: M-CSF/IL-4/PGE2, 6 days, concentration-dependent
Description: Single‐cell suspensions of mouse BM cells were prepared by filtering femurs and tibias of 6‐week‐old female BALB/c mice through 40‐μm cell strainers (Falcon). These suspensions were treated with red blood cell lysis buffer and replated in conditioned medium. Monocyte differentiation, MDSC induction, and macrophage polarization were analyzed by FACS analysis (BD Biosciences) with FlowJo software.
For macrophage polarization assay (De Henau et al., 2016; Tan et al., 2018), mouse BM cells were cultured in RPMI1640 medium supplemented with recombinant mouse M‐CSF (20 ng/ml, Peprotech) to generate BM‐derived macrophages (BMDM). For FACS analysis of BM‐derived M2‐like macrophage, IL‐4 (20 ng/ml, Peprotech) and PGE2 (10 nM) were added on day 0. TP‐16 was added simultaneously with PGE2 on day 0 or sequentially on day 3 for differentiation over a period of 6 days. For qPCR analysis of macrophages (day 6), BMDMs were polarized with IFNγ (50 ng/ml, Peprotech) or IL‐4 (20 ng/ml, Peprotech) ± PGE2 (10 nM) ± TP‐16 for 24 h at 37°C on day 6. The culture medium was refreshed every 3 days.

4T1 tumors = test: 4T1 breast cancer model in BALB/c mice; format: in vivo, mouse; conditions: 4T1, BALB/c mice, 75 mg/kg p.o. daily
Description: as §1, §2

CB1 = CB1 (Homo sapiens, UniProt P21554); test: LANCE Ultra cAMP assay
CB1, sequence (P21554 whole entry, species assumed): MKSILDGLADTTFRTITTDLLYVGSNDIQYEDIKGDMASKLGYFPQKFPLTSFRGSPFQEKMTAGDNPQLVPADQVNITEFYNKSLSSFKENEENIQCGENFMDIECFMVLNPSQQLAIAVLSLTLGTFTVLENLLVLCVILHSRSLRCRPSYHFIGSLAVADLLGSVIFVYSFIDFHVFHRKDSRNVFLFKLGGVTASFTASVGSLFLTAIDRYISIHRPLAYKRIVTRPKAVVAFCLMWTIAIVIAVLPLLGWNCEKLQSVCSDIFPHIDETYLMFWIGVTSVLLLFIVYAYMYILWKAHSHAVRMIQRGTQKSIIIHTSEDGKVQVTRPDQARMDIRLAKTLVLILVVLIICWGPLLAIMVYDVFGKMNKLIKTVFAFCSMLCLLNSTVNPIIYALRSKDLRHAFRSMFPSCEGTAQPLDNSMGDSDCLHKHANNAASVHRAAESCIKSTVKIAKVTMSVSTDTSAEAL

ADORA2A = molecular target: T1, ADORA2A (Homo sapiens, UniProt P29274); test: LANCE Ultra cAMP assay; format: cell-based
T1 construct: Pharmaron (Beijing, China) performed the assay
T1 sequence (P29274 whole entry, species assumed): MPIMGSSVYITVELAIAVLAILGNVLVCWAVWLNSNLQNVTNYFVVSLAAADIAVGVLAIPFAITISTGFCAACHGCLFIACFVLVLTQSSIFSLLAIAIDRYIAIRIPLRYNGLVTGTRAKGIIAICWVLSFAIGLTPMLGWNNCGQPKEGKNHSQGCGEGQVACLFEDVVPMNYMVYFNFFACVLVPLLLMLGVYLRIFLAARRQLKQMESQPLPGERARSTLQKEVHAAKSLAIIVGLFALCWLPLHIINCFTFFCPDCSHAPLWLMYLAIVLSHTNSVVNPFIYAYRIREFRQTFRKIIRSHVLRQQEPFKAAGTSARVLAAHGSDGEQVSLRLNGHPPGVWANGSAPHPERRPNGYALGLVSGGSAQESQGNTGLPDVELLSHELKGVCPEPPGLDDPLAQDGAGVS

ADORA3 = molecular target: T2, ADORA3 (Homo sapiens, UniProt P0DMS8); test: LANCE Ultra cAMP assay; format: cell-based
T2 construct: Pharmaron (Beijing, China) performed the assay
T2 sequence (P0DMS8 whole entry, species assumed): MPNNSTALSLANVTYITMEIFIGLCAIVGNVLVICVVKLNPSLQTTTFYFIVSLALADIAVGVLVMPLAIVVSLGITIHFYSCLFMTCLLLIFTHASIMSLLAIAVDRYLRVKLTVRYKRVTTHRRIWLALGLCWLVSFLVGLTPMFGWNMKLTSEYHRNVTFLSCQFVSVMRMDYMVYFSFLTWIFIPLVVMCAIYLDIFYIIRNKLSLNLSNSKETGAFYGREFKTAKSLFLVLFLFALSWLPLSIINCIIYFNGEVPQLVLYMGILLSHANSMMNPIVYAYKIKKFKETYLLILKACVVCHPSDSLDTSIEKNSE

[2] = male, mouse, plasma, iv, I.V. 1 mg/kg
[3] = male, mouse, plasma, po, P.O. 10 mg/kg

## C[C@H](NC(=O)c1c(Cc2ccc(F)cc2)sc2c1CCOC2)c1ccc(C(=O)O)cc1 [TP-16]
CT26 tumors; CT26, BALB/c mice, 37.5 mg/kg p.o. daily, 16 days
  %TGI (tumor growth inhibition): 26.2%
CT26 tumors; CT26, BALB/c mice, 75 mg/kg p.o. daily, 16 days
  %TGI (tumor growth inhibition): 47.4%
CT26 tumors; CT26, BALB/c mice, 150 mg/kg p.o. daily, 16 days
  %TGI (tumor growth inhibition): 47.6%
CT26 tumors; CT26, BALB/c mice, both 150 mg/kg
  anti-tumor efficacy compared with E7046: greater efficacy than E7046
CT26 tumors; CT26, BALB/c, TP-16 75 mg/kg p.o. daily, anti-PD-1 50 μg i.p. twice weekly, 2 weeks, control 16 days
  median survival time: 30 days
CT26 tumors; CT26, TP-16 75 mg/kg vs celecoxib 100 mg/kg, p.o. daily, 16 days
  anti-tumor efficacy compared with celecoxib: superior
HCT8
  effect on cell viability: did not affect the viability
DLD1
  effect on cell viability: did not affect the viability
HCT116
  effect on cell viability: did not affect the viability
HUVEC
  effect on cell viability: did not affect the viability
HT29
  effect on cell viability: did not affect the viability
[1]; I.V. 1 mg/kg
  Vd/F: 2.016 L/kg
[1]; male, mouse, plasma, 10 mg/kg, ratio of oral AUC0-∞ to intravenous AUC0-∞
  bioavailability: 40.1%
[1]; [2]
  AUC(0-inf): 2140 ng·h/mL
  C0: 2370 ng/mL
  MRT: 2.1 h
  half-life: 3 h
  AUC(0-t): 2140 ng·h/mL
[1]; [3]
  AUC(0-inf): 8580 ng·h/mL
  CL/F: 19.4 mL/min/kg
  Cmax: 3850 ng/mL
  MRT: 3.7 h
  half-life: 5.4 h
  AUC(0-t): 8400 ng·h/mL
[1]; male, mouse, plasma, po, P.O. 10 mg/kg, read-out: Vd/F
  Vd/F: 9.08 L/kg
Mouse bone marrow cells
  PGE2-induced polarization of M2 macrophages: significantly suppressed
4T1 tumors
  %TGI: 27.3%
CB1
  IC50: > 10 µM
ADORA2A
  IC50: > 10 µM
ADORA3
  IC50: > 10 µM
